≈ marks a conversion by molar mass, not a printed value.
Key:
Oryctolagus sp. = conditions: chronic
Hypoaspis aculeifer = conditions: chronic/long-term; mortality
Elodea callitrichoides = conditions: chronic/long-term; duration: 42 days
Pimephales promelas = conditions: mortality
Tagia sp. = conditions: chronic/long-term; growth
Rattus norvegicus = conditions: acute; oral; mortality
Daphnia magna = conditions: chronic/long-term; duration: 21 days; mortality
Apis mellifera = conditions: acute, mortality

`CNC1=C(c2cccc(C(F)(F)F)c2)C(=O)C(c2ccccc2)O1` (configuration not stated) [Flurtamone] was tested, and the NOAEL (Oryctolagus sp.) was 20 mg/kg-day, the NOEC (Hypoaspis aculeifer) was 89 mg/kg and the NOEC (Elodea callitrichoides) was 0.001 mg/L. For the same compound, the LC50 (Pimephales promelas; acute, duration: 96 hours) was 6.64 mg/L (≈ 19.9 µM), the NOEC (Pimephales promelas; chronic/long-term, duration: 35 days) was 0.188 mg/L and the NOEC (Tagia sp.) was 47.5 mg/kg. For the same compound, the LD50 (Colinus virginianus; acute, oral, mortality) was > 2530 mg/kg, the NOEC (Colinus virginianus; chronic) was 7.3 mg/kg-day and the LD50 (Rattus norvegicus) was > 5000 mg/kg. The NOEC (Daphnia magna) was 0.071 mg/L, the LD50 (Apis mellifera; dermal) was > 100 µg/piece and the LD50 (Apis mellifera; oral, unspecified) was > 105 µg/piece.
